Values quoted from earlier work as cited in US6734210B2, “Therapeutically improved salts of azelaic acid” (priority 2000, dated 2004).

For `O=C(O)CCCCCCCC(=O)O` [azelaic acid], the “solubility in cosmetic oils” value (cosmetic oils) is listed as “little or no solubility” and the “maximum azelaic acid content of a water solution” value (water) is listed as “about 0.24 % by weight (w/w)”.
